This experiment addresses human IDO1 (Homo sapiens, UniProt P14902). Nature of the experiment: Assessment of human IDO-1 inhibitory activity in HEK cells (human IDO1/HEK293 cells, kynurenine read-out with Ehrlich reagent, absorbance 490 nm). Type of experiment: cell-based. Further details: expressed in transfected cells. The note with it: HEK Human IDO-1 cellular assay. A digest of the protocol:
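Kynurenine output from stably IDO1-transfected HEK293 cells (10,000/well, phenol red-free RPMI, 10% FBS) after 20 h compound exposure at 37 °C. The reaction was stopped with 0.2% TCA and heated 30 min at 50 °C, then the supernatant was mixed with Ehrlich reagent and read at 490 nm. IC50 was set against DMSO and a 500 nM reference standard as 0 and 100% inhibition.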
Sequence of human IDO1 (P14902 whole entry): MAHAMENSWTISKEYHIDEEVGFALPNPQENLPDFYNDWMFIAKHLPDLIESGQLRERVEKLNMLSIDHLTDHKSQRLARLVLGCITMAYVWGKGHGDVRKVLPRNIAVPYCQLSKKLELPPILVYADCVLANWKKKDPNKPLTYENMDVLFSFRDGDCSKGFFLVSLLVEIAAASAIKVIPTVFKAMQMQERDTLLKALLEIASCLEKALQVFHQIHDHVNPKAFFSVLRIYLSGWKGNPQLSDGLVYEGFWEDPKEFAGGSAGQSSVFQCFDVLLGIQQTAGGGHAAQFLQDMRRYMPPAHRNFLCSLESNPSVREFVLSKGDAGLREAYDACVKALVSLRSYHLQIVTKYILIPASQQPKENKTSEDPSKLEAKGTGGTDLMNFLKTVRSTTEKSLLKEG
Consider `CC[C@H](CC(=O)O)c1ccc(N2C[C@@H](C)O[C@@H](C)C2)c(NC(=O)Nc2ccc(C)cc2)c1` (single isomer, unassigned) [Example 760], for which the 50% inhibitory concentration (IC50) was > 50 nM.

For the compound `CCOc1ccc(Nc2cc([C@@H](CC)CC(=O)O)ccc2N(CC(C)(C)O)C2CCOCC2)c(F)c1` (single isomer, unassigned) [Example 201], the IC50 was < 50 nM.

On to `CCC(CC(=O)O)c1cc(F)c(N(CC(C)C)CC(C)C)c(NC(=O)Nc2ccc(C)c(F)c2)c1` (racemic) [Example 974, (+/−)-3-(4-(diisobutylamino)-3-fluoro-5-(3-(3-fluoro-4-methylphenyl)ureido)phenyl)pentanoic acid], for which the 50% inhibitory concentration (IC50) was < 50 nM.

As for `Cc1ccc(CC(=O)Nc2cc(C(CC(=O)O)C3CC3)ccc2N(CC(C)C)C2CCCCC2)cc1` (single isomer, unassigned) [Example 1247, 3-(4-(Cyclohexyl(isobutyl)amino)-3-(2-(p-tolyl)acetamido)phenyl)-3-cyclopropylpropanoic acid], the IC50 was < 5 nM.

In the case of `CCC(CC(=O)O)c1cc(NC(=O)Nc2cnc(OC)nc2)c(N(CC(C)C)CC(C)C)cc1F` (racemic) [Example 1140, (±)-3-(4-(Diisobutylamino)-2-fluoro-5-(3-(2-methoxypyrimidin-5-yl)ureido)phenyl)pentanoic acid], the IC50 was < 5 nM.

As for `CCC(CC(=O)O)c1ccc(N(CC(C)C)C2CCCCC2)c(Nc2ccc(Cl)c(OC(F)F)c2)c1` (single isomer, unassigned) [Example 642], the IC50 was < 5 nM.

Regarding `CCN(c1ccc([C@@H](COC)CC(=O)O)cc1NC(=O)Nc1ccc(OC)nc1)C1CCOCC1` (single isomer, unassigned) [Example 426], the IC50 is > 50 nM.

As for `CCC(CC(=O)O)c1ccc(N2CCOC[C@H]2C(C)C)c(Nc2ccc(Cl)cc2)c1` (single isomer, unassigned) [Example 900], the IC50 is < 5 nM.

As to `CCOc1ccc(NC(=O)Nc2cc(C(COC)CC(=O)O)cc(F)c2N(CC(C)C)C2CCCCC2)cc1` (single isomer, unassigned) [Example 1153, 3-(4-(cyclohexyl(isobutyl)amino)-3-(3-(4-ethoxyphenyl)ureido)-5-fluorophenyl)-4-methoxybutanoic acid], the IC50 is < 50 nM.

`CCOc1ccc(CC(=O)Nc2cc(C(COC)CC(=O)O)ccc2N(CC(C)C)C2CCCCC2)cc1` (single isomer, unassigned) [Example 1241, 3-(4-(Cyclohexyl(isobutyl)amino)-3-(2-(4-ethoxyphenyl)acetamido)phenyl)-4-methoxybutanoic acid]: the half-maximal inhibitory concentration (IC50) is < 50 nM.

Regarding `CCC(CC(=O)O)c1ccc(N(CC(C)C)C2CCCCC2)c(Nc2ccc3c(c2)OC(F)(F)O3)c1` (single isomer, unassigned) [Example 299, 3-(4-(Cyclohexyl(isobutyl)amino)-3-((2,2-difluorobenzo[d][1,3]dioxol-5-yl)amino)phenyl)pentanoic acid], the IC50 is < 5 nM.

Regarding `CC[C@H](CC(=O)O)c1ccc(N2CCOC[C@@H]2C(C)C)c(Nc2ccc3c(c2)OC(F)(F)O3)c1` (single isomer, unassigned) [Example 93], the half-maximal inhibitory concentration (IC50) is < 50 nM.

Consider `CCOc1ncc(Nc2cc(C(C)CC(=O)O)ccc2N(CC(C)(C)O)C2CCCCC2)cn1` (single isomer, unassigned) [Example 54, 3-(4-(cyclohexyl(2-hydroxy-2-methylpropyl)amino)-3-((2-ethoxypyrimidin-5-yl)amino)phenyl)butanoic acid], for which the half-maximal inhibitory concentration (IC50) is < 50 nM.

For `CCOc1cnc(Nc2cc(C(C)CC(=O)O)ccc2N(CC)C2CCOCC2)cn1` (single isomer, unassigned) [Example 618, 3-(3-((5-ethoxypyrazin-2-yl)amino)-4-(ethyl (tetrahydro-2H-pyran-4-yl)amino)phenyl)butanoic acid], the 50% inhibitory concentration (IC50) was < 5 nM.

With `Cc1ccc(NC(=O)Nc2cc(C(CC(=O)O)C3CC3)ccc2N(CC(C)C)C2CCOCC2)cc1` (single isomer, unassigned) [1202 E2], the IC50 is < 5 nM.

`CCOc1ncc(Nc2cc(C(CC(=O)O)c3ccccc3)ccc2N(CC)C2CCOCC2)cn1` (single isomer, unassigned) [Example 578, 3-(3-((2-Ethoxypyrimidin-5-yl)amino)-4-(ethyl(tetrahydro-2H-pyran-4-yl)amino)phenyl)-3-phenylpropanoic acid]: the IC50 was < 50 nM.

As for `CCC(CC(=O)O)c1ccc(N2CCC[C@H]2C(C)(C)F)c(Nc2ccc3c(c2)OC(F)(F)O3)c1` (single isomer, unassigned) [Example 790], the half-maximal inhibitory concentration (IC50) was < 50 nM.

For `CC[C@@H](CC(=O)O)c1ccc(N(CC)C2CCOCC2)c(Nc2ccc(Cl)cc2)c1` (single isomer, unassigned) [Example 456], the IC50 is < 5 nM.

`CCN(c1ccc(C(CC(=O)O)c2ccccc2)cc1Nc1ccc(Cl)cc1F)C1CCOCC1` (single isomer, unassigned) [Example 592, 3-(3-((4-chloro-2-fluorophenyl)amino)-4-(ethyl(tetrahydro-2H-pyran-4-yl)amino)phenyl)-3-phenylpropanoic acid]: the IC50 is > 50 nM.

Regarding `CCC(CC(=O)O)c1cc(NC(=O)Nc2ccc(C)cc2)c(N(CC(C)C)C2CCCCC2)cc1F` (single isomer, unassigned) [Example 1106, 3-(4-(Cyclohexyl(isobutyl)amino)-2-fluoro-5-(3-(p-tolyl)ureido)phenyl)pentanoic acid], the IC50 is < 5 nM.

As for `CCC(CC(=O)O)c1ccc(N(CC2CC2)C2CCOCC2)c(Nc2cnc(OC)nc2)c1` (single isomer, unassigned) [Example 703, 3-(4-((cyclopropylmethyl) (tetrahydro-2H-pyran-4-yl)amino)-3-((2-methoxypyrimidin-5-yl)amino)phenyl)pentanoic acid], the IC50 was < 5 nM.

Consider `CCC(CC(=O)O)c1cc(NC(=O)Nc2cncnc2)c(N(CC(C)C)C2CCCCC2)cc1F` (single isomer, unassigned) [Example 1123, 3-(4-(cyclohexyl(isobutyl)amino)-2-fluoro-5-(3-(pyrimidin-5-yl)ureido)phenyl)pentanoic acid], for which the 50% inhibitory concentration (IC50) was < 5 nM.

Take `CCOc1ncc(Nc2cc([C@@H](COC)CC(=O)O)ccc2N(CC)C2CCOCC2)cn1` (single isomer, unassigned) [Example 351]: the IC50 is < 50 nM.

With `CCOc1ncc(Nc2cc([C@H](CC)CC(=O)O)ccc2N(CC(C)(C)O)C2CCCCC2)cn1` (single isomer, unassigned) [Example 240], the IC50 was < 50 nM.

As for `CCc1cnc(Nc2cc([C@H](CC)CC(=O)O)ccc2N(CC(C)(C)O)C2CCCCC2)nc1` (single isomer, unassigned) [Example 241], the half-inhibitory concentration (IC50) is < 50 nM.

As to `CC[C@@H](CC(=O)O)c1ccc(N(CC)C2CCOCC2)c(NC(=O)Nc2ccc(Cl)nc2)c1` (single isomer, unassigned) [Example 495], the IC50 is > 50 nM.

In the case of `CC[C@@H](CC(=O)O)c1ccc(N(CC)C2CCOCC2)c(Nc2cnc(OC)nc2)c1` (single isomer, unassigned) [Example 479], the 50% inhibitory concentration (IC50) is < 5 nM.

Regarding `CC[C@H](CC(=O)O)c1ccc(N(CC(C)(C)O)C2CCOCC2)c(Nc2ccc(Cl)cc2)c1` (single isomer, unassigned) [Example 203], the IC50 was < 5 nM.

`CCN(c1ccc(C(C)CC(=O)O)cc1Nc1cnc(C)nc1)C1CCOCC1` (single isomer, unassigned) [Example 636, 3-(4-(ethyl(tetrahydro-2H-pyran-4-yl)amino)-3-((2-methylpyrimidin-5-yl)amino)phenyl)butanoic acid]: the IC50 was > 50 nM.

For `CCOc1ncc(Nc2cc(C(CC)CC(=O)O)ccc2N2CCOC[C@H]2C(C)C)cn1` (single isomer, unassigned) [Example 903], the IC50 was < 50 nM.

Consider `CCCOc1ncc(Nc2cc(C(CC)CC(=O)O)ccc2N(CC(C)C)C2CCCCC2)cn1` (single isomer, unassigned) [Example 647, 3-(4-(cyclohexyl(isobutyl)amino)-3-((2-propoxypyrimidin-5-yl)amino)phenyl)pentanoic acid], for which the IC50 is < 5 nM.

Regarding `CCN(c1ccc([C@H](COC)CC(=O)O)cc1NC(=O)Nc1cc(C)on1)C1CCOCC1` (single isomer, unassigned) [Example 439], the IC50 was > 50 nM.

Turning to `CC[C@@H](CC(=O)O)c1ccc(N(CC)C2CCOCC2)c(Nc2nc3cc(C)nn3cc2F)c1` (single isomer, unassigned) [Example 469], the IC50 is > 50 nM.

`CCOc1ncc(Nc2cc(C(C)CC(=O)O)ccc2N(CC(C)(C)O)C2CCOCC2)cn1` (single isomer, unassigned) [Example 191, 3-(3-((2-Ethoxypyrimidin-5-yl)amino)-4-((2-hydroxy-2-methylpropyl)(tetrahydro-2H-pyran-4-yl)amino)phenyl)butanoic acid]: the IC50 is > 50 nM.

With `CC[C@H](CC(=O)O)c1ccc(N2CCOC[C@@H]2C(C)C)c(Nc2ccc(C#N)cc2)c1` (single isomer, unassigned) [Example 92], the 50% inhibitory concentration (IC50) was < 5 nM.

As for `CCC(CC(=O)O)c1ccc(N2CCC[C@@H]2C(C)(C)O)c(Nc2ccc(Cl)cc2)c1` (single isomer, unassigned) [Example 783], the IC50 is < 5 nM.

Regarding `CCCN(c1ccc([C@@H](COC)CC(=O)O)cc1Nc1ccc2nc(C)sc2c1)C1CCOCC1` (single isomer, unassigned) [Example 560], the concentration for half-maximal inhibition (IC50) is < 50 nM.

Take `CC(C)CN(c1ccc(C(COCC2CC2(F)F)CC(=O)O)cc1NC(=O)Nc1ccc(Cl)cc1F)C1CCCCC1` (racemic) [Example 1002, (+/−)-3-(3-(3-(4-Chloro-2-fluorophenyl)ureido)-4-(cyclohexyl(isobutyl)amino)phenyl)-4-((2,2-difluorocyclopropyl)methoxy)butanoic acid]: the IC50 was < 50 nM.

Take `CC[C@@H](CC(=O)O)c1ccc(N(CC(C)(C)O)C2CCOCC2)c(Nc2ccc(Cl)c(OCC(F)(F)F)c2)c1` (single isomer, unassigned) [Example 200]: the concentration for half-maximal inhibition (IC50) was < 50 nM.

The values above are taken from patent US9790169B2, “IDO inhibitors” (BRISTOL-MYERS SQUIBB COMPANY, priority 2015, dated 2017).
